Laboratory results: BigSolDB 2.1

Cc1ncc([N+](=O)[O-])n1CCO
solubility (mole fraction)
Details	298.15 K	303.15 K	308.15 K	313.15 K	318.15 K	323.15 K	328.15 K	333.15 K
in transcutol	0.0207	0.0227	0.0244	0.0263	0.0283	0.0303	0.033	0.0361
in water	0.00111	0.00119	0.00128	0.00137	0.00147	0.00159	0.0017	0.00182
